Reference: patent US12139520B2 (priority 2020, dated 2024)
pEC50: −log10 of the molar value. Bridge positions count the residues as written; N and C are the ends. Square brackets hold non-standard residues; d marks the D form. Peptide text beside a SMILES is read from it. Hyp = O=C(O)[C@@H]1C[C@@H](O)CN1; Cit = NC(=O)NCCC[C@H](N)C(=O)O

How the values were obtained:
[1] = Physical stability of peptide analogues (Thioflavin T fibrillation); assay type: physicochemical; conditions: maximum ThT signal normalized between hAMY maximum and buffer background; 40° C., shaking, four days; pH 7 per table title
Procedure, shortened: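 Samples are stressed at 40 °C for four days, being shaken at 700 rpm before each 10-min fluorescence reading of 4 μM Thioflavin T. Buffers were pH 4 acetate or pH 7 phosphate. Reported values are smoothed maximum ThT signals as a percentage of the hAMY-to-background range.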

hAM1 receptor = hAM1 receptor (Homo sapiens, UniProt O60895+Q16602); assay: cAMP assay for in vitro receptor activation, hAM1-R; assay type: cell-based; conditions: cAMP assay, hAM1 receptor; read-out: hAM1R EC50
Procedure, shortened: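 cAMP accumulation was measured in a monoclonal cell line stably overexpressing the hAM1 receptor. Frozen aliquots were thawed and plated at 8000 cells/well in DPBS containing 0.05% casein and 0.5 mM IBMX.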

Chain of hAM1 receptor (Q16602 23-461): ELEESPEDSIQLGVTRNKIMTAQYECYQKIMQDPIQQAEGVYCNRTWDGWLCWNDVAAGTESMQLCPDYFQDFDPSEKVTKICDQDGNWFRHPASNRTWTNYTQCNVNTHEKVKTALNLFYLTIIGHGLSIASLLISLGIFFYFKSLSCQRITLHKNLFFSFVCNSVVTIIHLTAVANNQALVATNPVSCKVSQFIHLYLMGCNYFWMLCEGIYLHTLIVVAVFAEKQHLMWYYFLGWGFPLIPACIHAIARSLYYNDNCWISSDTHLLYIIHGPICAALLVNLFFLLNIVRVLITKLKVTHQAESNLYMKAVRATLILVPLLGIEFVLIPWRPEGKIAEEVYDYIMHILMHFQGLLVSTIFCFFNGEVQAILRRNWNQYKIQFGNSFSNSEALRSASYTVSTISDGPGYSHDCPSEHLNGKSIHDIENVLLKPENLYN
Chain of hAM1 receptor (O60895 43-175 partner): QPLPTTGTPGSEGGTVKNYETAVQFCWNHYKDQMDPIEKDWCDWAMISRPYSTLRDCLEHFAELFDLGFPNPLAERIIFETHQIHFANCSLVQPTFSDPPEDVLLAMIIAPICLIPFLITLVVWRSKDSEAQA

| Max ThT signal (%) [1] | pEC50 (hAM1 receptor) | Structure (SMILES) |
| --- | --- | --- |
| 18.150% | < 5.30 | CC[C@H](C)[C@H](NC(=O)[C@H](CC(N)=O)NC(=O)[C@H](CO)NC(=O)[C@H](CCCNC(=N)N)NC(=O)[C@@H]1CCCN1C(=O)[C@H](C)NC(=O)[C@@H](NC(=O)[C@H](CC(N)=O)NC(=O)[C@H](CC(=O)O)NC(=O)[C@H](CCCCN)NC(=O)[C@H](CC(=O)O)NC(=O)[C@H](CCCCN)NC(=O)[C@H](CC(=O)O)NC(=O)[C@@H](NC(=O)[C@H](Cc1ccccc1)NC(=O)[C@H](CCC(N)=O)NC(=O)[C@H](Cc1ccc(O)cc1)NC(=O)[C@@H](NC(=O)[C@H](CCC(N)=O)NC(=O)[C@H](Cc1c[nH]cn1)NC(=O)[C@H](C)NC(=O)[C@H](CC(C)C)NC(=O)[C@H](CCCNC(N)=O)NC(=O)[C@H](CCC(N)=O)NC(=O)[C@@H](NC(=O)[C@@H](NC(=O)[C@@H]1CSSC[C@H](NC(=O)CN)C(=O)N[C@@H](CCCNC(=N)N)C(=O)N[C@@H]([C@@H](C)O)C(=O)NCC(=O)N[C@@H]([C@@H](C)O)C(=O)N1)[C@@H](C)O)C(C)C)[C@@H](C)CC)[C@@H](C)O)C(C)C)C(=O)NCC(=O)N1CCC[C@H]1C(=O)N[C@@H](CCC(N)=O)C(=O)NCC(=O)N1C[C@H](O)C[C@H]1C(N)=O [compound 303] (H-GCRTGTCTVQ[Cit]LAHQIYQFTDKDKDNVAPRSNIGPQG[Hyp]-NH2; disulfide 2-7) |
| 13.800% | < 5.30 | CC[C@H](C)[C@H](NC(=O)[C@H](CCCCN)NC(=O)[C@H](CO)NC(=O)[C@H](CCCNC(=N)N)NC(=O)[C@@H]1CCCN1C(=O)[C@H](C)NC(=O)[C@@H](NC(=O)[C@H](CC(N)=O)NC(=O)[C@H](CC(=O)O)NC(=O)[C@H](CCCCN)NC(=O)[C@H](CC(=O)O)NC(=O)[C@H](CCCCN)NC(=O)[C@H](CC(=O)O)NC(=O)[C@@H](NC(=O)[C@H](Cc1ccccc1)NC(=O)[C@H](CCC(N)=O)NC(=O)[C@H](Cc1ccc(O)cc1)NC(=O)[C@H](CC(C)C)NC(=O)[C@H](CCC(N)=O)NC(=O)[C@H](Cc1c[nH]cn1)NC(=O)[C@H](C)NC(=O)[C@H](CC(C)C)NC(=O)[C@H](CCCNC(=N)N)NC(=O)[C@H](CCC(N)=O)NC(=O)[C@@H](NC(=O)[C@@H](NC(=O)[C@@H]1CSSC[C@H](NC(=O)CN)C(=O)N[C@@H](CCCNC(=N)N)C(=O)N[C@@H](Cc2ccccc2)C(=O)NCC(=O)N[C@@H]([C@@H](C)O)C(=O)N1)[C@@H](C)O)C(C)C)[C@@H](C)O)C(C)C)C(=O)N[C@@H](CO)C(=O)N1CCC[C@H]1C(=O)N[C@@H](CCC(N)=O)C(=O)N[C@H](C(=O)N1C[C@H](O)C[C@H]1C(N)=O)[C@@H](C)O [compound 217] (H-GCRFGTCTVQRLAHQLYQFTDKDKDNVAPRSKISPQT[Hyp]-NH2; disulfide 2-7; N-terminus assumed) |
| 13.350% | < 5.30 | CC[C@H](C)[C@H](NC(=O)[C@H](CCC(N)=O)NC(=O)[C@H](Cc1c[nH]cn1)NC(=O)[C@H](C)NC(=O)[C@H](CC(C)C)NC(=O)[C@H](Cc1c[nH]c2ccccc12)NC(=O)[C@H](CCC(N)=O)NC(=O)[C@@H](NC(=O)[C@@H](NC(=O)[C@@H]1CSSC[C@H](NC(=O)CN)C(=O)N[C@@H](CCCNC(=N)N)C(=O)N[C@@H]([C@@H](C)O)C(=O)NCC(=O)N[C@@H]([C@@H](C)O)C(=O)N1)[C@@H](C)O)C(C)C)C(=O)N[C@@H](Cc1ccc(O)cc1)C(=O)N[C@@H](CCC(N)=O)C(=O)N[C@@H](Cc1ccccc1)C(=O)N[C@H](C(=O)N[C@@H](CC(=O)O)C(=O)N[C@@H](CCCCN)C(=O)N[C@@H](CC(=O)O)C(=O)N[C@@H](CCCCN)C(=O)N[C@@H](CC(=O)O)C(=O)N[C@@H](CC(N)=O)C(=O)N[C@H](C(=O)N[C@@H](C)C(=O)N1CCC[C@H]1C(=O)N[C@@H](CCCNC(=N)N)C(=O)N[C@@H](CO)C(=O)N[C@@H](CCCCN)C(=O)N[C@H](C(=O)NCC(=O)N1CCC[C@H]1C(=O)N[C@@H](CCC(N)=O)C(=O)NCC(=O)N[C@@H](Cc1ccc(O)cc1)C(N)=O)C(C)C)C(C)C)[C@@H](C)O [compound 344] (H-GCRTGTCTVQWLAHQIYQFTDKDKDNVAPRSKVGPQGY-NH2; disulfide 2-7; N-terminus assumed) |

Continued, compound first:

| Structure (SMILES) | Max ThT signal (%) [1] | pEC50 (hAM1 receptor) |
| --- | --- | --- |
| CC[C@H](C)[C@H](NC(=O)[C@H](CCC(N)=O)NC(=O)[C@H](Cc1c[nH]cn1)NC(=O)[C@H](C)NC(=O)[C@H](CC(C)C)NC(=O)[C@H](CCCNC(=N)N)NC(=O)[C@H](CCC(N)=O)NC(=O)[C@@H](NC(=O)[C@@H](NC(=O)[C@@H]1CSSC[C@H](NC(=O)CN)C(=O)N[C@@H](CCCNC(=N)N)C(=O)N[C@@H](CCSC)C(=O)NCC(=O)N[C@@H]([C@@H](C)O)C(=O)N1)[C@@H](C)O)C(C)C)C(=O)N[C@@H](Cc1ccc(O)cc1)C(=O)N[C@@H](CCC(N)=O)C(=O)N[C@@H](Cc1ccccc1)C(=O)N[C@H](C(=O)N[C@@H](CC(=O)O)C(=O)N[C@@H](CCCCN)C(=O)N[C@@H](Cc1ccccc1)C(=O)N[C@@H](CCCCN)C(=O)N[C@@H](CC(=O)O)C(=O)N[C@@H](CC(N)=O)C(=O)N[C@H](C(=O)N[C@@H](C)C(=O)N1CCC[C@H]1C(=O)N[C@@H](CCCNC(=N)N)C(=O)N[C@@H](CO)C(=O)N[C@@H](CCCCN)C(=O)N[C@H](C(=O)N[C@@H](CO)C(=O)N1CCC[C@H]1C(=O)N[C@@H](CCC(N)=O)C(=O)N[C@H](C(=O)N1C[C@H](O)C[C@H]1C(N)=O)[C@@H](C)O)[C@@H](C)CC)C(C)C)[C@@H](C)O [compound 173] (H-GCRMGTCTVQRLAHQIYQFTDKFKDNVAPRSKISPQT[Hyp]-NH2; disulfide 2-7; N-terminus assumed) | 4.400% | < 5.30 |
| CC[C@H](C)[C@H](NC(=O)[C@H](CCCCN)NC(=O)[C@@H](NC(=O)[C@H](CCCNC(=N)N)NC(=O)[C@@H]1CCCN1C(=O)[C@H](C)NC(=O)[C@@H](NC(=O)[C@H](CC(N)=O)NC(=O)[C@H](CC(=O)O)NC(=O)[C@H](CCCCN)NC(=O)[C@H](CC(=O)O)NC(=O)[C@H](CCCCN)NC(=O)[C@H](CC(=O)O)NC(=O)[C@@H](NC(=O)[C@H](Cc1ccccc1)NC(=O)[C@H](CCC(N)=O)NC(=O)[C@H](Cc1ccc(O)cc1)NC(=O)[C@@H](NC(=O)[C@H](CCC(N)=O)NC(=O)[C@H](Cc1c[nH]cn1)NC(=O)[C@H](C)NC(=O)[C@H](CC(C)C)NC(=O)[C@H](CCCNC(N)=O)NC(=O)[C@H](CCC(N)=O)NC(=O)[C@@H](NC(=O)[C@@H](NC(=O)[C@@H]1CSSC[C@H](NC(=O)CN)C(=O)N[C@@H](CCCNC(=N)N)C(=O)N[C@@H]([C@@H](C)O)C(=O)NCC(=O)N[C@@H]([C@@H](C)O)C(=O)N1)[C@@H](C)O)C(C)C)[C@@H](C)CC)[C@@H](C)O)C(C)C)[C@@H](C)O)C(=O)NCC(=O)N1CCC[C@H]1C(=O)N[C@@H](CC(N)=O)C(=O)NCC(=O)N1C[C@H](O)C[C@H]1C(N)=O [compound 277] (H-GCRTGTCTVQ[Cit]LAHQIYQFTDKDKDNVAPRTKIGPNG[Hyp]-NH2; disulfide 2-7; N-terminus assumed) | 21.600% | < 5.30 |
| CC[C@H](C)[C@H](NC(=O)[C@H](CCC(N)=O)NC(=O)[C@H](Cc1c[nH]cn1)NC(=O)[C@H](C)NC(=O)[C@H](CC(C)C)NC(=O)[C@H](CCCNC(=N)N)NC(=O)[C@H](CCC(N)=O)NC(=O)[C@@H](NC(=O)[C@@H](NC(=O)[C@@H]1CSSC[C@H](NC(=O)CN)C(=O)N[C@@H](CCCNC(=N)N)C(=O)N[C@@H]([C@@H](C)O)C(=O)NCC(=O)N[C@@H]([C@@H](C)O)C(=O)N1)[C@@H](C)O)C(C)C)C(=O)N[C@@H](C)C(=O)N[C@@H](CCC(N)=O)C(=O)N[C@@H](Cc1ccccc1)C(=O)N[C@H](C(=O)N[C@@H](CC(=O)O)C(=O)N[C@@H](CCCCN)C(=O)N[C@@H](Cc1ccccc1)C(=O)N[C@@H](CCCCN)C(=O)N[C@@H](CC(=O)O)C(=O)N[C@@H](CC(N)=O)C(=O)N[C@H](C(=O)N[C@@H](C)C(=O)N1CCC[C@H]1C(=O)N[C@@H](CCCNC(=N)N)C(=O)N[C@@H](CO)C(=O)N[C@@H](CCCCN)C(=O)N[C@H](C(=O)N[C@@H](CO)C(=O)N1CCC[C@H]1C(=O)N[C@@H](CCC(N)=O)C(=O)N[C@H](C(=O)N1C[C@H](O)C[C@H]1C(N)=O)[C@@H](C)O)[C@@H](C)CC)C(C)C)[C@@H](C)O [compound 196] (H-GCRTGTCTVQRLAHQIAQFTDKFKDNVAPRSKISPQT[Hyp]-NH2; disulfide 2-7; N-terminus assumed) | 0.500% | < 5.30 |
| CC[C@H](C)[C@H](NC(=O)[C@H](CCC(N)=O)NC(=O)[C@H](Cc1c[nH]cn1)NC(=O)[C@H](C)NC(=O)[C@H](CC(C)C)NC(=O)[C@H](CCCNC(=N)N)NC(=O)[C@H](CCC(N)=O)NC(=O)[C@@H](NC(=O)[C@@H](NC(=O)[C@@H]1CSSC[C@H](NC(=O)CN)C(=O)N[C@@H](CCCNC(=N)N)C(=O)N[C@@H](Cc2ccccc2)C(=O)NCC(=O)N[C@@H]([C@@H](C)O)C(=O)N1)[C@@H](C)O)C(C)C)C(=O)N[C@@H](Cc1ccc(O)cc1)C(=O)N[C@@H](CCC(N)=O)C(=O)N[C@@H](Cc1ccccc1)C(=O)N[C@H](C(=O)N[C@@H](CC(=O)O)C(=O)N[C@@H](CCCCN)C(=O)N[C@@H](CC(=O)O)C(=O)N[C@@H](CCCCN)C(=O)N[C@@H](CC(=O)O)C(=O)N[C@@H](CC(N)=O)C(=O)N[C@H](C(=O)N[C@@H](C)C(=O)N1CCC[C@H]1C(=O)N[C@@H](CCCNC(=N)N)C(=O)N[C@@H](CO)C(=O)N[C@@H](CCCCN)C(=O)N[C@H](C(=O)N[C@@H](CO)C(=O)N1CCC[C@H]1C(=O)N[C@@H](CCC(N)=O)C(=O)N[C@H](C(=O)N1C[C@H](O)C[C@H]1C(N)=O)[C@@H](C)O)[C@@H](C)CC)C(C)C)[C@@H](C)O [compound 168] (H-GCRFGTCTVQRLAHQIYQFTDKDKDNVAPRSKISPQT[Hyp]-NH2; disulfide 2-7; N-terminus assumed) | 12.500% | < 5.30 |
